According to patent US20230272077A1, “PD-1 SIGNAL INHIBITOR COMBINATION THERAPY” (KYOTO UNIVERSITY, priority 2015, published 2023):
“Also recorded” adds a separate entry of the source.

What was measured:
RENCA = test: RENCA-bearing BALB/c mice (tumor volume); assay type: in vivo, mouse; conditions: RENCA in BALB/c mice, combined with anti-PD-L1 antibody
Procedure: Murine renal cell carcinoma RENCA cells (2×10^6) were inoculated into BALB/c mice. After 7 days, anti-PD-L1 antibody (1-111A, 150 μg) and AMPK inhibitor (Compound C: 200 μg in BBS, 200 l) were administered intraperitoneally. Anti-PD-L1 antibody was administered 3 times at a regular interval of 6 days; Compound C (C.C) was administered 7 times at a regular interval 2 days. Tumor volumes (mm^3) from day 0 to day 25 of RENCA inoculation are shown.

MC38 = test: Mouse therapy model, MC38-bearing mice (tumor volume, survival); assay type: in vivo; conditions: MC38-bearing mice
Procedure: MC38 (5×10^5) and MethA (5×10^5) cells were intradermally injected on the right flank. MC38 was inoculated into C57BL/6 mice and MethA was inoculated into BALB/c mice. For monotherapy, mice were intraperitoneally injected with 150 μg of PD-L1 mouse antibody (1-111A) (prepared by the laboratory of the present inventors) 5 days after the tumor inoculation. Therapy with PD-L1 antibody alone was repeated three times every 5 days. For combination therapy, administration of PD-L1 antibody and chemical agents started 7 days after tumor injection. Chemical agents were injected at a regular interval of 2 days and PD-L1 antibody at a regular interval of 5 days (shown in FIG. 3b). Tumors were measured on every alternate day, and tumor volumes were calculated using the formula for typical ellipsoid, π×(length×breadth×height/6).
The following chemical reagents were used at the indicated concentrations for combination therapy. AMPK activator: A769662, 6 mg/kg (Abcam); mTOR activator: MHY1485, 3 μg/kg (Sigma-Aldrich); uncoupler: carbonylcyanide-p-trifluoromethoxyphenylhydrazone (FCCP), 1.2 mg/kg (Abcam); uncoupler: 2,4-Dinitrophenol (DNP), 1.7 mg/kg (Aldrich); SIRT1 activator: resveratrol, 0.5 mg/kg (Abcam); ROS scavenger: Mn (III) tetrakis (4-benzoic acid) porphyrin (MnTBAP), 1.25 mg/kg (Calbiochem); ROS generator: tert-butyl hydroperoxide solution (Luperox TBH70X), 200 μL/kg (Sigma-Aldrich); ATP synthase inhibitor: oligomycin, 250 μg/kg (Sigma-Aldrich); paraquat 2 mg/kg (Nakalai Tesque); oltipraz 1.9 mg/kg (Sigma); bezafibrate 1 mg/kg (ChemCruz).
All reagents were freshly prepared just before use. Each reagent was dissolved in the solvent indicated in the instructions. Note that the AMPK activator, mTOR activator, uncouplers and SIRT1 activator were prepared from fresh unused vials in each series of experiments. Dissolved reagents were diluted in PBS, and a 200 l aliquot was injected per mouse.
Murine colon adenocarcinoma MC38 cells (5×10^5) were inoculated into C57BL/6 mice. After 7 days, anti-PD-L1 antibody (1-111A, 150 μg) and AMPK inhibitor (Compound C: 200 μg in BBS, 200 μL) were administered intraperitoneally. Anti-PD-L1 antibody was administered 3 times at a regular interval of 6 days; Compound C (C.C) was administered 7 times at a regular interval 2 days.
MC38 cells (5×10^5) were inoculated into C57BL/6 mice. After 7 days, anti-PD-L1 antibody (1-111A, 150 μg) and PGC-1α/transcription factor complex activator (2-(4-{2-[(4-chlorobenzoyl)amino]ethyl}phenoxy)-2-methylpropanoic acid (bezafibrate): 10 ug in PBS, 200 ul) were administered intraperitoneally. Anti-PD-L1 antibody was administered 3 times at a regular interval of 6 days; bezafibrate was administered 7 times at a regular interval 2 days.

[1] = used in 1930's; cited from earlier work
[2] = tested on: AMPK and its associated proteins ACC and SIRT1; test: Western blotting of DLN CD8+ T cells, AMPK pathway; assay type: in vivo, mouse; conditions: CD8+ T cells from mice treated with PD-L1 antibody and reagent
Procedure: (§1) FIG. 7. […] Phosphorylation of AMPK, ACC, mTOR and S6K and the expression of SIRT1 and 4EBP1 were analyzed by Western blotting. b) MC38-bearing mice were treated with PD-L1 antibody in combination with AMPK activator (A769662) and/or mTOR activator (MHY1485) according to the same schedule as shown in FIG. 3b.
(§2) CD8^+ T cells were isolated using mouse CD8 Microbeads (Miltenyi Biotec). After washing with PBS twice, 2×10^6 cells were solubilized in a lysis buffer containing 30 mM Tris-HCl (pH.7.4), 150 mM NaCl, 10% glycerol, 0.1% SDS, 1% Triton-X-100, 0.05% Na-Doc, 5 mM EDTA (pH.8.0), protease inhibitor mixture (Roche Molecular Biochemicals) and phosphatase inhibitors (Nacalai Tesque). After measurement of protein concentrations by DC protein assay (Bio-Rad), 4 μg of proteins was mounted on 4 to 20% gradient Mini-PROTEAN TGX Gels (Bio-Rad) and electroblotted onto nitrocellulose membranes, which were then incubated in a blocking buffer of TBS containing 1% BSA. Primary antibody incubations were carried out overnight at 4° C. in blocking buffer. After washing, secondary antibody incubations were carried out at room temperature for 40 min in blocking buffer. Blots were developed with enhanced chemiluminescence (Amersham Pharmacia). […]

[3] = tested on: mTOR and its associated proteins S6K and 4EBP1; test: Western blotting of DLN CD8+ T cells, mTOR pathway; assay type: in vivo, mouse; conditions: CD8+ T cells from mice treated with PD-L1 antibody and reagent
Procedure: as §1, §2

[4] = reagent combined with PD-L1 antibody vs PD-L1 antibody alone

Row | SMILES | enhancement of efficacy of anti-PD-L1 antibody therapy (tumor volume) (RENCA) | enhancement of efficacy of anti-PD-L1 antibody therapy (tumor volume) (RENCA; listed as compound C) | enhancement of antitumor effect of PD-L1 antibody (tumor volume) (MC38; [4]) | enhancement of antitumor effect of PD-L1 antibody (tumor volume) (MC38; reagent combined with PD-L1 antibody vs PD-L1 antibody alone, listed as compound C) | health problems in use as diet supplement [1] | activation of AMPK and its associated proteins ACC and SIRT1 [2] | activation of mTOR and its associated proteins S6K and 4EBP1 [3] | antitumor activity of triple combination of PD-L1 antibody, DNP and Luperox (MC38; DNP and Luperox both with PD-L1 antibody) | antitumor effect when administered alone (MC38; reagent alone, no PD-L1 antibody, tumor volume) | survival rate (MC38; [4])
1 | c1cc(-c2cnn3cc(-c4ccc(OCCN5CCCCC5)cc4)cnc23)ccn1 [AMPK inhibitor, 6-[4-[2-(1-Piperidinyl)ethoxy]phenyl]-3-(4-pyridinyl)pyrazolo[1,5-a]pyrimidine] | enhances the efficacy of anti-PD-L1 antibody therapy | Synergistic effect | enhances the efficacy of anti-PD-L1 antibody therapy | Synergistic effect | – | – | – | – | – | –
2 | O=[N+]([O-])c1ccc(O)c([N+](=O)[O-])c1 [DNP, 2,4-dinitrophenol] | – | – | augmented the efficacy of PD-L1 antibody therapy; also recorded: enhance the antitumor effect of PD-L1 antibody | – | caused severe health problems | activated | also found to be activated | stronger antitumor activity; also recorded: Antitumor effect is enhanced | failed to exhibit any antitumor effect | remarkably improved the survival rate
